Measurements as given in PubChem BioAssay (NCI).
Where “and” joins values, the source holds several entries; their conditions need not be identical. Identical values can stand only once.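 Five concentrations, 48 hours, 96-well plates. The concentration for 50% growth inhibition is given as GI50. The concentration for full growth arrest is given as TGI.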

Tests used:
Experiment in all cases: DTP human tumour cell line panel, 48 h
OVCAR-8 ovarian = test system: OVCAR-8 ovarian
SF-539 CNS = test system: SF-539 CNS
IGROV1 ovarian = test system: IGROV1 ovarian
EKVX NSCLC = test system: EKVX NSCLC
T-47D breast = test system: T-47D breast
UACC-62 melanoma = test system: UACC-62 melanoma
786-0 renal = test system: 786-0 renal
COLO 205 colon = test system: COLO 205 colon
NCI/ADR-RES ovarian = test system: NCI/ADR-RES ovarian
MDA-MB-231 breast = test system: MDA-MB-231 breast

SMILES | GI50 (OVCAR-8 ovarian) | TGI (OVCAR-8 ovarian) | GI50 (SF-539 CNS) | TGI (SF-539 CNS) | GI50 (IGROV1 ovarian) | TGI (IGROV1 ovarian) | GI50 (EKVX NSCLC) | TGI (EKVX NSCLC) | GI50 (T-47D breast) | TGI (T-47D breast) | GI50 (UACC-62 melanoma) | TGI (UACC-62 melanoma) | GI50 (786-0 renal) | TGI (786-0 renal) | GI50 (COLO 205 colon) | TGI (COLO 205 colon) | GI50 (NCI/ADR-RES ovarian) | TGI (NCI/ADR-RES ovarian) | GI50 (MDA-MB-231 breast) | TGI (MDA-MB-231 breast)
CCN(CC)CCCC(C)Nc1cnc(C(=O)Nc2cccc3ccc(OC)nc23)cn1 (stereo not given) | 2740 nM | 8.41 µM | 1790 nM | 3.21 µM | 2.09 µM | 4.91 µM | 2520 nM | 8.36 µM | 1850 nM | 3.95 µM | 1790 nM | 3.21 µM | 1640 nM | 3.21 µM | 1770 nM | 3.46 µM | 2620 nM | 7.95 µM | 1730 nM | 3.45 µM
CS(=O)(=O)c1cc(=O)c2ccccc2s1 |  | 6.22 µM |  | 27.6 µM |  | 41.2 µM |  | 21.4 µM |  | 9.41 µM |  | 27.3 µM |  | 13 µM |  | 3.26 µM |  | 38.8 µM |  | 31.4 µM
N#Cc1cccc(NC(=O)c2cc(-c3ccc(F)cc3F)ccc2O)c1 | 2880 nM | > 100 µM | 3070 nM | 10.5 µM | 2.98 µM | 68.6 µM | 2650 nM | 10.9 µM | 1100 nM | 6.83 µM | 870 nM | 4.42 µM | 2690 nM | 19.4 µM | 10900 nM | 28.2 µM | 2190 nM | 6.84 µM | 2010 nM | 5.23 µM
CSc1nc2cc(S(=O)(=O)N3CCCCC3)ccc2s1 |  | > 100 µM |  | > 100 µM |  | > 100 µM |  | > 100 µM |  | > 100 µM |  | > 100 µM |  | > 100 µM |  | > 100 µM |  | > 100 µM |  | > 100 µM
Nc1nc(-c2cccc(Cl)c2)c(-c2ccc3ncccc3n2)s1 | > 25000 nM | > 25 µM | > 25000 nM | > 25 µM | 22.4 µM | > 25 µM | > 25000 nM | > 25 µM | 5880 nM | > 25 µM | > 25000 nM | > 25 µM | > 25000 nM | > 25 µM | > 25000 nM | > 25 µM | > 25000 nM | > 25 µM | > 25000 nM | > 25 µM
Cc1ccc2c(c1)CN(C(=O)CCC(=O)OCc1ccccc1)c1ccc(C)cc1CN2C(=O)CCC(=O)OCc1ccccc1 |  | > 100 µM |  | > 100 µM |  | > 100 µM |  | > 100 µM |  | > 100 µM |  | > 100 µM |  | > 100 µM |  | > 100 µM |  | > 100 µM |  | > 100 µM
O=c1[nH]c(=O)n(C2OC(CO)C(O)C(O)C2O)cc1F (stereo not given) |  | > 100 µM |  | > 100 µM |  | > 100 µM |  | > 100 µM |  | > 100 µM |  | > 100 µM |  | > 100 µM |  | > 100 µM |  | > 100 µM |  | > 100 µM
CCCCN1CSC(=S)N(Cc2ccccc2)C1 |  | > 100 µM |  | > 100 µM |  | > 100 µM |  | 78.7 µM |  | > 100 µM |  | > 100 µM |  | > 100 µM |  | 50.6 µM |  | > 100 µM |  | > 100 µM
O=C(O)[C@@H]1CCCCN1Cc1cc2cc3c(cc2c2cc(OCc4ccccc4)ccc12)OCO3 | 6620 nM | 29 µM | 3870 nM | 16.6 µM | 6.53 µM | 21.4 µM | 4420 nM | 25.3 µM | 2970 nM | 29.5 µM | 1490 nM | 3.08 µM | 18900 nM | 44.9 µM | 3050 nM | 15.8 µM | 19300 nM | 39.6 µM | 1900 nM | 6.21 µM
COc1ccc(C2SCC(=O)N2NC(=O)Nc2c(C)nc3ccccn23)cc1 (stereo not given) | 40200 nM | > 100 µM | 34100 nM | > 100 µM | 38.6 µM | > 100 µM | 63000 nM | > 100 µM | 26400 nM | 74.9 µM | 39600 nM | > 100 µM | 21800 nM | 61.6 µM | > 100000 nM | > 100 µM | 40200 nM | > 100 µM | 15800 nM | 34.7 µM
CC(C)(C)c1ccc(O)c(CN(Cc2cc(C(C)(C)C)ccc2O)c2ccccc2)c1 |  | 37.5 µM |  | 32 µM |  | 47.7 µM |  | 37.1 µM |  | 42.8 µM |  | 28.4 µM |  | 30.7 µM |  | 30.9 µM |  | 37.6 µM |  | 31.7 µM
CC(C)(C)c1cc(NC(=O)Cc2ccc(-c3cnc4cc(-c5cnn(CCN6CCOCC6)c5)ccc4n3)cc2)no1 | 481 nM and 507 nM and 121 nM | 50 µM and > 100 µM and > 3 µM | 87.8 nM and 236 nM and 344 nM | 3.68 µM and 3.05 µM and > 3 µM | 0.106 µM and 0.104 µM | 0.65 µM and 1.11 µM | 829 nM and 459 nM and 144 nM | 50 µM and > 100 µM and > 3 µM | 853 nM and 822 nM and 107 nM | 50 µM and > 100 µM and > 3 µM | 260 nM and 364 nM and 55.2 nM | 50 µM and > 100 µM and > 3 µM | 297 nM and 764 nM and 92 nM | 50 µM and > 100 µM and > 3 µM | 836 nM and 93.1 nM | 50 µM and > 3 µM | 1080 nM and 745 nM and 117 nM | 50 µM and > 100 µM and > 3 µM | 622 nM and 573 nM | 50 µM and > 100 µM and > 2.85 µM
CC[C@H](C)[C@H]1O[C@]2(C=C[C@@H]1C)C[C@@H]1C[C@@H](C/C=C(\C)[C@@H](O[C@H]3C[C@H](OC)[C@@H](O[C@H]4C[C@H](OC)[C@@H](NC)[C@H](C)O4)[C@H](C)O3)[C@@H](C)/C=C/C=C3\CO[C@@H]4[C@H](O)C(C)=C[C@@H](C(=O)O1)[C@]34O)O2 | 3840 nM | 14.5 µM | 1810 nM | 3.37 µM | 3.06 µM | 12 µM | 2130 nM | 6.51 µM | 4400 nM | 16.8 µM | 1990 nM | 4.28 µM | 1260 nM | 2.94 µM | 1770 nM | 3.39 µM | 3050 nM | 11.3 µM | 2000 nM | 4.4 µM
